Experiments:
Assay type in all cases: cell-based
human TLR8 = molecular target: T1, human TLR8 (Homo sapiens, UniProt Q9NR97); test: TLR7/8/9 Inhibition Reporter Assays (TLR8); conditions: HEK-Blue cells overexpressing human TLR8, SEAP reporter, stimulated with TLR8 ligand R848
T1 construct: host or cells: HEK-Blue cells (HEK293-derived reporter line)
T1 sequence (Q9NR97 27-1041): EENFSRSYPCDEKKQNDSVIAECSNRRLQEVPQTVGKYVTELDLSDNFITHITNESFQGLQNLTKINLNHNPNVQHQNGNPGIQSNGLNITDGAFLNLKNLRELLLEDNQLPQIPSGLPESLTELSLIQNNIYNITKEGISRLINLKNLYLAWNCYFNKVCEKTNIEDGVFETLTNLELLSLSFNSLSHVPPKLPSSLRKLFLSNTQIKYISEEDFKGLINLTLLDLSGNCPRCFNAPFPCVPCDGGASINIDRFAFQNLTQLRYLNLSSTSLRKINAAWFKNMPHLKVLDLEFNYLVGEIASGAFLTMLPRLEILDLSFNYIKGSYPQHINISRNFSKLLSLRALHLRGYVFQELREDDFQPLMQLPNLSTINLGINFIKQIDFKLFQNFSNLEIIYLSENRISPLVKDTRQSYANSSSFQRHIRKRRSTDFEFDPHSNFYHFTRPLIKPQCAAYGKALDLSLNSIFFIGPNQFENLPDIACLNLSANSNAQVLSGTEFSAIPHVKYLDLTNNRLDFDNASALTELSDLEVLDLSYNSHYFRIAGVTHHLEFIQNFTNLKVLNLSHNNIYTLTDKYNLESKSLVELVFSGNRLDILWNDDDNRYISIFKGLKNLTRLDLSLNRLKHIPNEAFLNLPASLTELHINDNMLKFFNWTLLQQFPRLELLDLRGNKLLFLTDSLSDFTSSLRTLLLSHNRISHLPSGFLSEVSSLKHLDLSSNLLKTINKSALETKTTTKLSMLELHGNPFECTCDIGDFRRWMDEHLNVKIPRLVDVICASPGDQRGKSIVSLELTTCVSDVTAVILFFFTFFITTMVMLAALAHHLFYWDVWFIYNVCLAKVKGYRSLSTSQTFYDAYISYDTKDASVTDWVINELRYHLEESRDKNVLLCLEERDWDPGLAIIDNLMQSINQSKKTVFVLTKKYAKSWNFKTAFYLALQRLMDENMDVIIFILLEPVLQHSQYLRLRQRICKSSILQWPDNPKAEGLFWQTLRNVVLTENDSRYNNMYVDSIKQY
Outline: (§1)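 HEK-Blue cells overexpressing human TLR7, TLR8 or TLR9 with NF-κB/AP-1-driven SEAP reporter, pre-treated 60 min with compound ([…]). Stimulated with […] (TLR7), […] (TLR8) or ODN2006 200 nM (TLR9), then 22 h at 37° C; SEAP measured, % inhibition relative to agonist-plus-DMSO and known-inhibitor wells.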

human TLR7 = molecular target: T2, human TLR7 (Homo sapiens, UniProt Q9NYK1); test: TLR7/8/9 Inhibition Reporter Assays (TLR7); conditions: HEK-Blue cells overexpressing human TLR7, SEAP reporter, stimulated with TLR7 ligand gardiquimod
T2 construct: host or cells: HEK-Blue cells (HEK293-derived reporter line)
T2 sequence (Q9NYK1 27-1049): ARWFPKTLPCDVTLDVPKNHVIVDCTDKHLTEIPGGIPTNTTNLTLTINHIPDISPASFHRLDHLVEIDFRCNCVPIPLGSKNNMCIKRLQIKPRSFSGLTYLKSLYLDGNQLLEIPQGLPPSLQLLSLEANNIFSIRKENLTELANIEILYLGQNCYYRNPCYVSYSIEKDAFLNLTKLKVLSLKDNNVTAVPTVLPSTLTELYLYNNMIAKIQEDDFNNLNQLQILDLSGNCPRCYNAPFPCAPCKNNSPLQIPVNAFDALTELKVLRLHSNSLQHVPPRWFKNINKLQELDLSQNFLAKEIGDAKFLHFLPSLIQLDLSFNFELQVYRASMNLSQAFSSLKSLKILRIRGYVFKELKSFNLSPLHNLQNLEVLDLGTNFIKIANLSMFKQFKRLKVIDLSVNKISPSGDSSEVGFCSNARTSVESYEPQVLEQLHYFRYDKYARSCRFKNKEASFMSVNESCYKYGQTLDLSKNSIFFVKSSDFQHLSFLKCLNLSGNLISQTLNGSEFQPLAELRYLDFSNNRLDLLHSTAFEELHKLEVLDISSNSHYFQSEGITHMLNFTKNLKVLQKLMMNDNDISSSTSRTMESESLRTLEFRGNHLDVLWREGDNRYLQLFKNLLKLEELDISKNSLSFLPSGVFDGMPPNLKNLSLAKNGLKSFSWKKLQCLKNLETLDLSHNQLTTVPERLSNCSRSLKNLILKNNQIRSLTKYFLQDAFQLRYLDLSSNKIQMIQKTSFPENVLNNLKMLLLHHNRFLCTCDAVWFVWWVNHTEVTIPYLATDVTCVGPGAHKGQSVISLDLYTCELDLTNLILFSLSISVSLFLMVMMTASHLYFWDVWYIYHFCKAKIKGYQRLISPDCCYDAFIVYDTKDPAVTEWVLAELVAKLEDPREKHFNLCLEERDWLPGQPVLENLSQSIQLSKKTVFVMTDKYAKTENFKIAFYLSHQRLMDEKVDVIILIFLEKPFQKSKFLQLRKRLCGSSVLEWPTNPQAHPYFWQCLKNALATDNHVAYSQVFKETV
Outline: as §1

human TLR9 = molecular target: T3, human TLR9 (Homo sapiens, UniProt Q9NR96); test: TLR7/8/9 Inhibition Reporter Assays (TLR9); conditions: HEK-Blue cells overexpressing human TLR9, SEAP reporter, stimulated with TLR9 ligand ODN2006
T3 construct: host or cells: HEK-Blue cells (HEK293-derived reporter line)
T3 sequence (Q9NR96 26-1032): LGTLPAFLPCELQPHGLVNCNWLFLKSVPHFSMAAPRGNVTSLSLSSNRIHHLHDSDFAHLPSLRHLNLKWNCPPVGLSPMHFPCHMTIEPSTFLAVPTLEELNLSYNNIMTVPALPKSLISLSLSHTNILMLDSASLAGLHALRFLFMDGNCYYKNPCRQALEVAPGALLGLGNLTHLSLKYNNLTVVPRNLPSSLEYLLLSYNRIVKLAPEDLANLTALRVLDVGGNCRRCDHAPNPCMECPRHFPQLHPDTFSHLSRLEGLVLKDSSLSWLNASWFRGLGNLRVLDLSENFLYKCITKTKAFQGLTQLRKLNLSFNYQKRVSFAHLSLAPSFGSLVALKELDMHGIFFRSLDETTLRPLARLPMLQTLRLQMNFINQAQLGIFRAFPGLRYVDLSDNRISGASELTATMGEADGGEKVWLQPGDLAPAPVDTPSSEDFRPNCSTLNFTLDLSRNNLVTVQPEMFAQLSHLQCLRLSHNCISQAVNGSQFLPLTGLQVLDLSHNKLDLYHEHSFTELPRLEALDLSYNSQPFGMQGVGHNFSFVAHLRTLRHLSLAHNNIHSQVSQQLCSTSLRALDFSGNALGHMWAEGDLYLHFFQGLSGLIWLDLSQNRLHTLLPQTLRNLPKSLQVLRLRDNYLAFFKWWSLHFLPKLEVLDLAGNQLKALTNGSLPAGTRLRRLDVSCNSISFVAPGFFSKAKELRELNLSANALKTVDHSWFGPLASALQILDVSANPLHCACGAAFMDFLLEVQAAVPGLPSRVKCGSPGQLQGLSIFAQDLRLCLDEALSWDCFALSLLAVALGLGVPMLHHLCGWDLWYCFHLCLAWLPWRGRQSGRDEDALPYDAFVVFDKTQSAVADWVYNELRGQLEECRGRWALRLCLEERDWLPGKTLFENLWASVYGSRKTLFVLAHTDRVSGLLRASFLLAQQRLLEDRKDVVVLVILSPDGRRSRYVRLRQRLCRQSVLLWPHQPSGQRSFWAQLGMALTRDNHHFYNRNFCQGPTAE
Outline: as §1

Row | Compound | IC50 (human TLR8) [µM] | IC50 (human TLR7) [µM] | IC50 (human TLR9) [µM]
1 | COc1ccc(-c2nc3c(C)nc(-c4ccc(N5CCC6(CC5)CN(C(C)C)C6)cc4)cc3n2C)cc1OC [Example 60, 2-(3,4-dimethoxyphenyl)-6-(4-(2-isopropyl-2,7-diazaspiro[3.5]nonan-7-yl)phenyl)-1,4-dimethyl-1H-imidazo[4,5-c]pyridine] | 37 | 2.3 | 0.14
2 | CC(C)CN1CCC(N2CCC(c3cc4c(cn3)nc(-c3ccc(S(C)(=O)=O)cc3)n4C)CC2)CC1 [Example 31, 6-(1′-isobutyl-[1,4′-bipiperidin]-4-yl)-1-methyl-2-(4-(methylsulfonyl)phenyl)-1H-imidazo[4,5-c]pyridine] | > 25 | 4.8 | 0.24
3 | Cc1nc(-c2ccc(C3CCN(C4CCOCC4)CC3)cc2)cc2c1nc(-c1ccc(S(C)(=O)=O)cc1)n2C [Example 28, 1,4-dimethyl-2-(4-(methylsulfonyl)phenyl)-6-(4-(1-(tetrahydro-2H-pyran-4-yl)piperidin-4-yl)phenyl)-1H-imidazo[4,5-c]pyridine] | > 25 | 11 | 0.31
4 | Cc1nc(-c2ccc(CN3CCC(N(C)C)CC3)cc2)cc2c1nc(-c1ccc(S(C)(=O)=O)cc1)n2C [Example 45, 1-(4-(1,4-dimethyl-2-(4-(methylsulfonyl)phenyl)-1H-imidazo[4,5-c]pyridin-6-yl)benzyl)-N,N-dimethylpiperidin-4-amine] | 4.9 | 1 | 0.072
5 | Cc1nc(-c2ccc(N3CCC4(CC3)CN(CC(C)(C)O)C4)cc2)cc2c1nc(-c1ccc(S(C)(=O)=O)cc1)n2C [Example 91, 1-(7-(4-(1,4-dimethyl-2-(4-(methylsulfonyl)phenyl)-1H-imidazo[4,5-c]pyridin-6-yl)phenyl)-2,7-diazaspiro[3.5]nonan-2-yl)-2-methylpropan-2-ol] | 6.8 | 5.5 | 0.17
6 | COc1cc(-c2nc3c(C)nc(-c4ccc(N5CCN(C6CCC6)CC5)cc4)cc3n2C)cn2ncnc12 [Example 12, 6-(6-(4-(4-cyclobutylpiperazin-1-yl)phenyl)-1,4-dimethyl-1H-imidazo[4,5-c]pyridin-2-yl)-8-methoxy-[1,2,4]triazolo[1,5-a]pyridine] | > 50 | 1.5 | 0.63
7 | Cc1nc(-c2ccc(N3CCC(N4CCCC4)CC3)cc2)cc2c1nc(-c1ccc(S(C)(=O)=O)cc1)n2C [Example 41, 1,4-dimethyl-2-(4-(methylsulfonyl)phenyl)-6-(4-(4-(pyrrolidin-1-yl)piperidin-1-yl)phenyl)-1H-imidazo[4,5-c]pyridine] | > 50 | 5.8 | 0.11
8 | COc1ccc(-c2nc3cnc(-c4ccc(N5C[C@H]6CN(CC(C)C)C[C@H]6C5)cc4)cc3n2C2CC2)cc1OC [Example 82, 1-cyclopropyl-2-(3,4-dimethoxyphenyl)-6-(4-((3aR,6aS)-5-isobutylhexahydropyrrolo[3,4-c]pyrrol-2(1H)-yl)phenyl)-1H-imidazo[4,5-c]pyridine] | 4.2 | 3.8 | 0.22
9 | Cc1nc(C2CCN(C3CCN(C(C)C)CC3)CC2)cc2c1nc(-c1ccc(S(C)(=O)=O)cc1)n2C [Example 38, 6-(1′-isopropyl-[1,4′-bipiperidin]-4-yl)-1,4-dimethyl-2-(4-(methylsulfonyl)phenyl)-1H-imidazo[4,5-c]pyridine] | > 50 | 7.7 | 0.13
10 | Cc1cc(-c2nc3c(C)nc(-c4ccc(N5CCN(C(C)C)CC5)cc4)cc3n2C)cc(C)n1 [Example 13, 2-(2,6-dimethylpyridin-4-yl)-6-(4-(4-isopropylpiperazin-1-yl)phenyl)-1,4-dimethyl-1H-imidazo[4,5-c]pyridine] | > 50 | 1.9 | 0.41

Source: patent publication US20250163054A1, “SUBSTITUTED BICYCLIC HETEROARYL COMPOUNDS USEFUL AS INHIBITORS OF TLR9” (Bristol-Myers Squibb Company, priority 2022, published 2025)
